Results on 7 molecules are retold here after patent US20240115654A1, “INTRAVENOUS ADMINISTRATION OF ENGINEERED ANTIMICROBIAL AMPHIPHILIC PEPTIDES” (priority 2021, published 2024).

Assay [1] relates to Acinetobacter spp. isolates (n = 104). Particulars: Acinetobacter spp. (n = 104); CLSI breakpoints. The procedure: (§1) Comparator antibiotics were supplied by Micromyx, and stock solutions were prepared on the first day of testing using solvents recommended by CLSI (1). Stock solutions of all compounds were made at 40× the final testing concentration and stored at −80° C. prior to testing. Information regarding compound source, catalog and lot number, testing concentrations and drug diluent for the comparators and test agent are detailed below in Table 3.
(§2) The test organisms evaluated in this study consisted of clinical isolates from the Micromyx Repository and reference isolates from the American Type Culture Collection (ATCC; Manassas, VA). The clinical isolates were obtained from USA hospitals. Upon initial receipt at Micromyx, the organisms were sub-cultured onto an appropriate agar medium. Following incubation, colonies were harvested from these plates and cell suspensions prepared and frozen at −80° C. with a cryoprotectant. Prior to testing, the isolates were streaked from frozen vials onto Trypticase Soy Agar with 5% sheep blood (Becton Dickenson [BD]; Sparks, MD; Lot Nos. 7173618, 7166759, 7208688, 72144895, 7228505 and Remel Lenexa, KS Lot No. 212574). Plates were incubated at 35° C. overnight.
(§3) Mueller Hinton II broth (MHB II; BD; Lot Nos. 6258541 and 7143896) was used for MIC testing of aerobic organisms.
(§4) MIC values were determined using a broth microdilution procedure described by CLSI (1, 3). Automated liquid handlers (Multidrop 384, Labsystems, Helsinki, Finland; Biomek 2000 and Biomek FX, Beckman Coulter, Fullerton CA) were used to conduct serial dilutions and liquid transfers.
(§5) To prepare the drug mother plates, which would provide the serial drug dilutions for the replicate daughter plates, the wells of columns 2-12 of standard 96-well microdilution plates (Costar 3795) were filled with 150 μl of the designated diluent for each row of drug. The test articles and comparator compounds (300 μl at 40× the highest concentration to be tested) were dispensed into the appropriate wells in column 1. The Biomek 2000 was then used to make 2-fold serial dilutions in the mother plates from column 1 through column 11. The wells of Column 12 contained no drug and served as the organism growth control wells for the assay.
(§6) The daughter plates were loaded with 185 μL per well of MHB II using the Multidrop 384. The daughter plates were completed on the Biomek FX instrument which transferred 5 μL of drug solution from each well of a mother plate to the corresponding well of each daughter plate in a single step. A standardized inoculum of each test organism was prepared per CLSI methods (1). The inoculum for each organism was dispensed into sterile reservoirs divided by length (Beckman Coulter), and the Biomek 2000 was used to inoculate the plates. Daughter plates were placed on the Biomek 2000 work surface in reverse orientation so that inoculation took place from low to high drug concentration.
(§7) Plates were stacked 3-4 high, covered with a lid on the top plate, placed in plastic bags, and incubated at 35° C. for 16 to 20 hrs. Following incubation, the microplates were removed from the incubator and viewed from the bottom using a plate viewer. […] The MIC was read and recorded as the lowest concentration of drug that inhibited visible growth of the organism.
(§8) Clinical breakpoints to determine percent resistance within a given organism group were obtained from CLSI (3), with the exception of colistin for K. pneumoniae, Enterobacter spp., and E. coli, which are only available from EUCAST.

Assay [2] deals with Escherichia coli isolates (n = 101). The following applies: Escherichia coli (n = 101); CLSI breakpoints, colistin EUCAST. As to the method:
as §1, §2, §3, §4, §5, §6, §7, §8

Assay [3] concerns Klebsiella pneumoniae isolates (n = 101). The procedure: as §1, §2, §3, §4, §5, §6, §7, §8
For assay [4], the system named is Pseudomonas aeruginosa isolates (n = 109). Particulars: Pseudomonas aeruginosa (n = 109); CLSI breakpoints. The procedure:
as §1, §2, §3, §4, §5, §6, §7, §8

In assay [5] the test system is Enterobacter spp. isolates (Enterobacter aerogenes and E. cloacae, n = 102). As to the kind of experiment: organism not typed. The following applies: for % R (percent of isolates resistant): CLSI breakpoints, colistin EUCAST; for MIC: read-out: Mode (MIC). As to the method: as §1, §2, §3, §4, §5, §6, §7, §8
Assay [6] concerns Enterococcus faecium isolates (n = 104). Briefly: microbe, parasite or virus in culture. Particulars: for MIC: read-out: Mode (MIC); for % R (percent of isolates resistant): CLSI breakpoints. The procedure:
as §1
The test organisms evaluated in this study consisted of clinical isolates from the Micromyx Repository and reference isolates from the American Type Culture Collection (ATCC; Manassas, VA). The clinical isolates were obtained from USA hospitals. Upon initial receipt at Micromyx, the organisms were sub-cultured onto an appropriate agar medium. Following incubation, colonies were harvested from these plates and cell suspensions prepared and frozen at −80° C. with a cryoprotectant. […] Plates were incubated at 35° C. overnight.
MIC values were determined using a broth microdilution procedure described by CLSI (1, 3).
The test articles and comparator compounds (300 μl at 40× the highest concentration to be tested) were dispensed into the appropriate wells in column 1. The Biomek 2000 was then used to make 2-fold serial dilutions in the mother plates from column 1 through column 11. The wells of Column 12 contained no drug and served as the organism growth control wells for the assay.
The daughter plates were completed on the Biomek FX instrument which transferred 5 μL of drug solution from each well of a mother plate to the corresponding well of each daughter plate in a single step. A standardized inoculum of each test organism was prepared per CLSI methods (1). The inoculum for each organism was dispensed into sterile reservoirs divided by length (Beckman Coulter), and the Biomek 2000 was used to inoculate the plates. Daughter plates were placed on the Biomek 2000 work surface in reverse orientation so that inoculation took place from low to high drug concentration.
as §7, §8

The subject of assay [7] is Staphylococcus aureus isolates (n = 104). Briefly: microbe, parasite or virus in culture. The following applies: for % R (percent of isolates resistant): CLSI breakpoints. The procedure:
as §1, §2, §3, §4, §5, §6, §7, §8

Setting [8] is: Klebsiella pneumoniae (n = 101), CLSI breakpoints, colistin EUCAST.
Where [9] appears, read: Staphylococcus aureus (n = 104), all methicillin-resistant.
The mark [10] stands for this setting: Staphylococcus aureus (n = 104).

The structures appear in SMILES notation. Values after ≈ are worked out from the molar mass of the structure shown. Like-named read-outs stand apart in the source and are kept apart here. Where only a bound is given, the exact number is not on record here.

Consider `CC(C)(O/N=C(\C(=O)N[C@@H]1C(=O)N2C(C(=O)[O-])=C(C[n+]3ccccc3)CS[C@H]12)c1csc(N)n1)C(=O)O` [Ceftazidime], for which the “% R (percent of isolates resistant)” value in assay [1] is on record as 61.5%; in assay [2], 33.6%; in assay [3], “Over 80%”; in assay [3] (setting [8]), 80.2%; in assay [4], 14.6%; in assay [5] (Enterobacter spp. (n = 102)), 36.3%. In assay [5], this molecule displayed an MIC50 of 1 µg/mL (≈ 1.83 µM). Besides, in assay [5], the MIC90 was > 32 µg/mL. In addition, the MIC in assay [5] was > 32 µg/mL.
With `C[C@H]1COc2c(N3CCN(C)CC3)c(F)cc3c(=O)c(C(=O)O)cn1c23` [Levofloxacin], the results for the MIC50 in assay [6] (Enterococcus faecium) and in assay [5] were > 8 µg/mL and 0.06 µg/mL (≈ 0.166 µM), respectively. For the same molecule, the results for the MIC90 in assay [6] (Enterococcus faecium), in assay [7] (setting [9]) and in assay [5] were > 8 µg/mL, >8 µg/mL and 0.5 µg/mL (≈ 1.38 µM), respectively. In addition, the values for the MIC in assay [6] (Enterococcus faecium) and in assay [5] were > 8 µg/mL and 0.03 µg/mL (≈ 0.083 µM), respectively. For the same molecule, the “% R (percent of isolates resistant)” value in assay [7] (setting [10]) is reported as 82.7%; in assay [7] (Staphylococcus aureus (n = 104), listed as levofloxacin), “Over 80%”; in assay [1] it was 66.3%; in assay [2], 46.5%; in assay [3], “over 60%”; in assay [3] (setting [8]), 67.3%. Moreover, the “% R (percent of isolates resistant)” value is reported as 21.1% in assay [4] and 4.9% in assay [5] (Enterobacter spp. (n = 102)).
`C[C@H]1c2cccc(O)c2C(=O)C2=C(O)[C@]3(O)C(=O)C(C(N)=O)=C(O)[C@@H](N(C)C)[C@@H]3[C@@H](O)[C@@H]21` [Doxycycline]: in assay [6] (Enterococcus faecium), the MIC50 came out at 4 µg/mL (≈ 9 µM), the MIC90 was determined as 16 µg/mL (≈ 36 µM) and the MIC amounted to 0.12 µg/mL (≈ 0.27 µM). In assay [6] (Enterococcus faecium (n = 104)), the “% R (percent of isolates resistant)” value is listed as 25%. This molecule gave an MIC range in assay [7] (setting [9]) of 0.06 to 8 µg/mL. In assay [7] (setting [10]), the “% R (percent of isolates resistant)” value came to 0%.
In the case of `NC[C@H]1O[C@H](O[C@H]2[C@H](O)[C@@H](O[C@H]3O[C@H](CO)[C@@H](O)[C@H](N)[C@H]3O)[C@H](N)C[C@@H]2N)[C@H](N)C[C@@H]1O` [Tobramycin], the “% R (percent of isolates resistant)” value was 49.0% in assay [1]; 21.7% in assay [2]; “over 60%” in assay [3]; 59.4% in assay [3] (setting [8]); 7.4% in assay [4]; 3.9% in assay [5] (Enterobacter spp. (n = 102)). Also, the MIC50 in assay [5] was found to be 0.5 µg/mL (≈ 1.07 µM). This molecule gave an MIC90 in assay [5] of 1 µg/mL (≈ 2.14 µM). Also, in assay [5] (Enterobacter spp. (n = 102)), the MIC range was in the range of 0.12 to 64 µg/mL. Further, the MIC in assay [5] amounted to 0.5 µg/mL (≈ 1.07 µM).
`CC(=O)NC[C@H]1CN(c2ccc(N3CCOCC3)c(F)c2)C(=O)O1` [Linezolid]: in assay [6] (Enterococcus faecium), the MIC50 turned out to be 2 µg/mL (≈ 5.93 µM), the MIC90 is 4 µg/mL (≈ 11.9 µM) and the MIC was found to be 2 µg/mL (≈ 5.93 µM). Besides, in assay [6] (Enterococcus faecium (n = 104)), the MIC range was in the range of 1 to 32 µg/mL and the “% R (percent of isolates resistant)” value turned out to be 3.8%. In assay [6] (Enterococcus faecium (n = 104), listed as linezolid), the MIC range was in the range of 1 to 32 µg/mL. The same molecule had an MIC range in assay [7] (setting [9]) of 1 to 8 µg/mL. Also, the “% R (percent of isolates resistant)” value in assay [7] (setting [10]) came out at 1.9%.
On to `CN[C@H](CC(C)C)C(=O)N[C@H]1C(=O)N[C@@H](CC(N)=O)C(=O)N[C@H]2C(=O)N[C@H]3C(=O)N[C@H](C(=O)N[C@H](C(=O)O)c4cc(O)cc(O)c4-c4cc3ccc4O)[C@H](O)c3ccc(c(Cl)c3)Oc3cc2cc(c3O[C@@H]2O[C@H](CO)[C@@H](O)[C@H](O)[C@H]2O[C@H]2C[C@](C)(N)[C@H](O)[C@H](C)O2)Oc2ccc(cc2Cl)[C@H]1O` [Vancomycin], for which the MIC50 in assay [6] (Enterococcus faecium) and in assay [7] (Staphylococcus aureus) was 1 µg/mL (≈ 0.69 µM) each time. Also, the MIC90 is > 32 µg/mL in assay [6] (Enterococcus faecium), >32 µg/mL in assay [6] (Enterococcus faecium (n = 104)) and 1 µg/mL (≈ 0.69 µM) in assay [7] (Staphylococcus aureus). Moreover, the “% R (percent of isolates resistant)” value is given as 47.1% in assay [6] (Enterococcus faecium (n = 104)) and 0% in assay [7] (setting [10]). In addition, the MIC is > 32 µg/mL in assay [6] (Enterococcus faecium) and 1 µg/mL (≈ 0.69 µM) in assay [7] (Staphylococcus aureus, read-out: Mode (MIC)). Further, the MIC range in assay [7] (setting [9]) was 0.5 to 2 µg/mL.
For the molecule `CCC[C@@H]1C[C@@H](C(=O)N[C@@H]([C@H]2O[C@H](SC)[C@H](O)[C@@H](O)[C@H]2O)[C@H](C)Cl)N(C)C1` [Clindamycin], in assay [6] (Enterococcus faecium), the MIC50 was > 16 µg/mL, the MIC90 was > 16 µg/mL and the MIC was > 16 µg/mL. For the same molecule, in assay [7] (setting [9]), the MIC90 was >16 µg/mL. The “% R (percent of isolates resistant)” value in assay [7] (setting [10]) amounted to 37.5%.
